For this experiment, the system named is B16 melanoma cells. The experiment is described as follows: B16 melanoma test (test 1). The class given is cell-based. As to conditions: Mus musculus, 50 /ug/ml, aqueous suspension, incubation 20 hours, cells counted 48 hours after start. On the procedure: B16 melanoma cells grow as a "mono]ayer". The doubling time of these cells in a cell culture is 12-16 hours.
On day 0, a quantity of […] B16 melanoma cells is introduced in each cell culture dish.
On day 1 the compounds to be examined are vortexed in the presence of glass beads. The compound to be tested is then added to the dishes with melanoma celles in the desired quantity. The incubation takes place at 37°C for 20 hours in a C02 incubator. The incubation is terminated by removing the culture medium with therein the compound to be tested, after which the cells are wahsed once and fresh medium is added.
Forty-eight hours after the beginning of the incubation the quantity of cells in each dish is measured by means of a microcell Coulter Counter. The results thus obtained are expressed by indicating the activity of the compounds by 1+, 2+, 3+, 4+ or 5+ having the following meanings: • 1+: cell growth is inhibited by 1-20% with respect to the control test • 2+: cell growth is inhibited by 21-40% with respect to the control test • 3+: cell growth is inhibited by 41-60% with respect to the control test • 4+: cell growth is inhibited by 61-80% with respect to the control test • 5+: cell growth is inhibited by 81-100% with respect to the control test.
Sensitivity of B16 melanoma cells.
In the above-described manner, various compounds according to the invention were tested in dosages of 50 /ug/ml in the form of an aqueous suspension.

For `O=C(NC(=O)c1c(F)cccc1F)Nc1ccc(C(O)(C(F)(F)F)C(F)(F)F)cc1` [compound 4], the inhibition at 50 µg/mL is 81 to 100%.

`CN(C)c1cccc(F)c1C(=O)NC(=O)Nc1ccc(Cl)cc1` [compound 3] came in with an inhibition at 50 µg/mL of 81 to 100%.

In the case of `O=C(NC(=O)Nc1ccc(Cl)cc1)NC(=O)c1c(O)cccc1Cl` [compound 16], the inhibition at 50 µg/mL fell in the range of 61 to 80%.

The compound `CN(C)c1cccc(F)c1C(=O)NC(=O)Nc1c(F)c(F)c(F)c(F)c1F` [compound 12] gave an inhibition at 50 µg/mL of 61 to 80%.

With `O=C(NC(=O)c1c(F)c(F)c(F)c(F)c1F)Nc1ccc(Cl)cc1` [compound 7], the inhibition at 50 µg/mL fell in the range of 61 to 80%.

`CC(Oc1ccc(NC(=O)NC(=O)c2c(F)cccc2F)cc1)c1ccncc1` (centres unmarked) [compound 14] displayed an inhibition at 50 µg/mL of 61 to 80%.

As to `CN(C)c1ccccc1C(=O)NC(=O)Nc1ccc(Cl)cc1` [compound 15], the inhibition at 50 µg/mL was in the range of 81 to 100%.

`Nc1ccc(C(=O)NC(=O)Nc2ccccc2N)cc1` [compound 8] registered an inhibition at 50 µg/mL of 1 to 20%.

The compound `O=C(NC(=O)c1c(O)cccc1Cl)Nc1c(F)c(F)c(F)c(F)c1F` [compound 1] returned an inhibition at 50 µg/mL of 61 to 80%.

In turn, `O=C(NC(=O)c1c(F)c(F)c(F)c(F)c1F)Nc1ccc(O)c(C(F)(F)F)c1` [compound 2] yielded an inhibition at 50 µg/mL of 81 to 100%.

Consider `CCN(CC)c1cccc(F)c1C(=O)NC(=O)Nc1ccc(Cl)cc1` [compound 17], for which the inhibition at 50 µg/mL was in the range of 21 to 40%.

Turning to `Nc1cc(N)c(Cl)c(C(=O)NC(=O)Nc2ccc(Cl)cc2)c1Cl` [compound 9], the inhibition at 50 µg/mL fell in the range of 21 to 40%.

With `Nc1ccccc1C(=O)NC(=O)Nc1ccc(Cl)cc1` [compound 13], the inhibition at 50 µg/mL lay within 1 to 20%.

For `COc1ccc(NC(=O)NC(=O)c2c(F)cccc2N(C)C)cc1` [compound 11], the inhibition at 50 µg/mL fell in the range of 81 to 100%.

`O=C(NC(=O)c1ccccc1N1CCCCC1)Nc1ccc(C(F)(F)F)cc1` [compound 10] gave an inhibition at 50 µg/mL of 1 to 20%.

In turn, `CCOC(=O)c1ccc(NC(=O)NC(=O)c2c(F)cccc2F)cc1` [compound 5] returned an inhibition at 50 µg/mL of 41 to 60%.

Compound `O=C(NC(=O)c1c(F)c(F)c(F)c(F)c1F)Nc1c(F)c(F)c(F)c(F)c1F` [compound 6] returned an inhibition at 50 µg/mL of 81 to 100%.

The record behind these values is patent EP0193249A2, “Benzoyl urea derivatives having ati-tumor activity” (DUPHAR INTERNATIONAL RESEARCH B.V, priority 1985, dated 1986).
